Measurements: article PMC10174317, “^18F-labeled FGFR1 peptide: a new PET probe for subtype FGFR1 receptor imaging” (Frontiers in Oncology, 2023)
Like-named read-outs stand apart in the source and are kept apart here. Where a SMILES comes first, the peptide text is derived from it. The star is where a group is joined. NOTA = O=C(O)CN1CCN(CC(=O)O)CCN(CC(=O)*)CC1; AEEA = NCCOCCOCC(=O)O

How the values were obtained:
[1] = tested on: RT-112, A549, SNU-16 and Calu-3 cells; test: Cellular internalization study; type: cell-based, human; settings: acid wash with acetate buffer pH 2.5, four cell lines, P > 0.5, n = 6
Procedure: Internalization studies were performed according to the planned experiments. Thirty microliters (111 KBq, 1.81-2.53 GBq/μmol) of [^18F]F-FGFR1 was incubated with fresh medium in 24-well plates. The medium was discarded at predetermined time points, and the wells were rinsed twice with 1000 µl of PBS. Then, 1000 µl of acetate buffer (0.2 M acetic acid/0.5 M NaCl, pH 2.5) was added to the wells to remove surface-bound radioactivity. After removing the acetate buffer, the cells were washed twice with 1000 µl of PBS. The acetate buffer and PBS were collected and marked as Cs. The radioactivity of the collected cell lysate was measured and defined as Cin. The internalization rate was assessed in a similar method to the cell uptake rate calculation: Cin/(Cin + Cs).

[2] = tested on: RT-112 cells (FGFR1-high expression); test: Cellular uptake and blocking study; type: cell-based, human
Procedure: RT-112, A549, SNU-16 and Calu-3 cells were cultured at a density of 1*10^5 cells per well in 24-well plates the day before cellular uptake experiments. Cells were rinsed twice with 1000 µl of phosphate-buffered saline (PBS) (BI, Israel), followed by 1000 µl of growth medium. Then, 30 µl (111 KBq, 1.81-2.53 GBq/μmol) of [^18F]F-FGFR1 was added to each well, and the cells were incubated with the peptide for 15, 30, 60 and 120 min. At each cutoff time, 6 wells of supernatant were collected. The collected wells were washed twice with 1000 µl of PBS. Radioactivity counts were marked as Cout. […] After 500 µl of trypsin-EDTA digestion of the adherent cells and washed twice with 1000 µl of PBS, the collected cells were defined as Cin. Radioactivity was counted with an automatic γ counter. The formula for the cell uptake rate was as follows: Cin/(Cin + Cout).
To determine the specific binding of [^18F]F-FGFR1 with FGFR1 on the cell surface, 200-fold unlabeled peptide (220 µg) and 30 µl of [^18F]F-FGFR1 (111 KBq) were added to RT-112 cells at the same time. The supernatants were removed after 120 min of incubation. The subsequent steps of cell collection and radioactivity detection were performed as described above. The cell uptake rate was calculated by Cin/(Cin + Cout).

[3] = Micro-PET/CT biodistribution in SNU-16 xenografts; type: in vivo, BALB/c nude mice; settings: female, BALB/c nude, mouse, iv, total radioactivity, 11.1 MBq tail vein, micro-PET/CT ROI, mean ± SD; for tissue uptake at 0.5 h: 30 min post-injection; for tissue uptake at 1 h: 60 min post-injection; for tissue uptake at 2 h: 120 min post-injection
Procedure: All animal experiments were carried out in accordance with the Laboratory Animal Ethical Review of Animal Guidelines of China. BALB/c nude mice (sex, female; age, 4 weeks, body weight range, 19-21 g; China) were used for this study. Four cell lines (2*10^7 cells/nude mouse) were subcutaneously injected into the right forelimb to induce solid tumors. All xenograft nude mice were housed in laminar flow cabinets in a specific pathogen-free (SPF) environment and were provided ad libitum access to food and water at the Laboratory Animal Center of the Fourth Hospital of Hebei Medical University (China). The indication for micro-PET/CT imaging was xenografts with a tumor volume of 50-130 mm^3. All animal experiments strictly adhered to the Principles of the Laboratory Animal Ethical Committee of the Fourth Hospital Hebei Medical University (No. 2020016).
Xenograft mice (n=5) were fastly injected of 200 µl of [^18F]F-FGFR1 (11.1 MBq) through tail vein. For the in vivo blocking study, RT-112 (FGFR1-high expression) tumor-bearing mice (n = 5) were injected with a tracer that was mixed with 200-fold (1.58 mg) unlabeled peptide to saturate the receptors in the tumors. Mice were anesthetized via 3% isoflurane inhalation (RWD Life Science Inc. China) for induction and 2% isoflurane inhalation for maintenance. Micro-PET/CT imaging was performed on a micro-PET/SPECT/CT machine (NOVEL MEDICAL Equipment Ltd. China). Whole-body scans were performed 30, 60 and 120 min after tracer administration. The CT scanning parameters were 80 kV, 0.5 mA, 2000 ms/frames, and 360 frames; the images were reconstructed with a 512*512 matrix and a slice thickness of 0.18 mm. PET images were acquired with a 140*140 matrix and 10 min of total acquisition time. Reconstructed images were processed with the comprehensive image analysis software Pmod v4.201 (PMOD Technologies LLC. Switzerland). The biodistribution of the major organs (brain, heart, lung, liver, kidney, bone and muscle) and tumor were analyzed by manually outlining the regions of interest (ROIs) of the entire organs and tissue at each time point of the micro-PET/CT scan. The radioactivity accumulated in bone and muscle was measured in the limbs without xenograft tumors.

[4] = In vivo radiochemical stability, urine of xenograft nude mice (RP-HPLC); settings: urine of xenograft nude mice 60 min after injection of 7.4 MBq; one peak at 5.7 min; fluorine-18 at 4 min
Procedure: For the in vivo radiochemical stability experiment, urine samples were obtained from xenograft nude mice 60 min after injection of 150 µl (7.4 MBq, 2.53 GBq/μmol) [^18F]F-FGFR1 and analyzed by RP-HPLC.

[5] = bone, n=5, read-out: Biodistribution, Bone
[6] = brain, n=5, read-out: Biodistribution, Brain
[7] = heart, n=5, read-out: Biodistribution, Heart
[8] = kidney, n=5, read-out: Biodistribution, Kidney
[9] = liver, n=5, read-out: Biodistribution, Liver
[10] = lung, n=5, read-out: Biodistribution, Lung
[11] = muscle, n=5, read-out: Biodistribution, Muscle
[12] = tumor, n=5, read-out: Biodistribution, Tumor

**Q.** Which results are given for `CC(C)C[C@H](NC(=O)[C@H](CO)NC(=O)[C@H](CCCCN)NC(=O)[C@H](Cc1c[nH]c2ccccc12)NC(=O)[C@H](CCC(=O)O)NC(=O)[C@H](C)NC(=O)[C@H](CCCCN)NC(=O)COCCOCCNC(=O)CN1CCN(CC(=O)O)CCN(CC(=O)O)CC1)C(=O)NCC(=O)N[C@@H](CCC(=O)O)C(=O)N[C@@H](CCC(=O)O)C(=O)N[C@@H](C)C(=O)N[C@@H](Cc1c[nH]c2ccccc12)C(=O)N[C@@H](Cc1c[nH]cn1)C(=O)N[C@@H](CO)C(=O)N[C@@H](CCCCN)C(=O)O` [[^18F]F-FGFR1] ({NOTA-AEEA}-KAEWKSLGEEAWHSK-OH; N-terminus and C-terminus assumed)?
**A.** Internalization fraction Cin/(Cin + Cs) [1]: not significantly different in the four cell lines; Cellular uptake in RT-112 versus A549, SNU-16 and Calu-3 cells ([2]; 15, 30, 60 and 120 min incubation, P < 0.001, n = 6): consistently higher in RT-112 cell line; Cell uptake rate Cin/(Cin + Cout), blocked ([2]; RT-112 cells, 111 KBq tracer with 200-fold excess unlabeled peptide (220 µg), 120 min, mean ± SD, n = 6): 0.24 ± 0.05; Cell uptake rate Cin/(Cin + Cout) ([2]; RT-112 cells, 111 KBq tracer, 120 min incubation, γ counter, mean ± SD, n = 6): 5.11 ± 0.63; tissue uptake at 0.5 h [3, 5]: 0.38 ± 0.1 %ID/g; tissue uptake at 1 h [3, 5]: 0.37 ± 0.05 %ID/g; tissue uptake at 2 h [3, 5]: 0.41 ± 0.02 %ID/g; tissue uptake at 0.5 h [3, 6]: 0.56 ± 0.06 %ID/g; tissue uptake at 1 h [3, 6]: 0.6 ± 0.07 %ID/g; tissue uptake at 2 h [3, 6]: 0.56 ± 0.1 %ID/g; tissue uptake at 0.5 h [3, 7]: 0.7 ± 0.09 %ID/g; tissue uptake at 1 h [3, 7]: 0.62 ± 0.09 %ID/g; tissue uptake at 2 h [3, 7]: 0.55 ± 0.06 %ID/g; tissue uptake at 0.5 h [3, 8]: 8.04 ± 0.97 %ID/g; tissue uptake at 1 h [3, 8]: 7.43 ± 0.83 %ID/g; tissue uptake at 2 h [3, 8]: 4.23 ± 0.7 %ID/g; tissue uptake at 0.5 h [3, 9]: 1.54 ± 0.11 %ID/g; tissue uptake at 1 h [3, 9]: 1.57 ± 0.12 %ID/g; tissue uptake at 2 h [3, 9]: 1.45 ± 0.1 %ID/g; tissue uptake at 0.5 h [3, 10]: 0.67 ± 0.08 %ID/g; tissue uptake at 1 h [3, 10]: 0.6 ± 0.03 %ID/g; tissue uptake at 2 h [3, 10]: 0.46 ± 0.09 %ID/g; tissue uptake at 0.5 h [3, 11]: 0.27 ± 0.06 %ID/g; tissue uptake at 1 h [3, 11]: 0.27 ± 0.03 %ID/g; tissue uptake at 2 h [3, 11]: 0.31 ± 0.02 %ID/g; tissue uptake at 0.5 h [3, 12]: 0.66 ± 0.05 %ID/g; tissue uptake at 1 h [3, 12]: 0.6 ± 0.06 %ID/g; tissue uptake at 2 h [3, 12]: 0.45 ± 0.04 %ID/g; In vivo radiochemical stability (RP-HPLC of urine) [4]: no peak corresponded to fluorine-18
